# Measured values reported in patent US20060089263A1, “2-Propenal and related enal compounds for controlling plant pests and weeds in soil” (priority 2004, published 2006).
# Experiments:
# Type in all cases: in vivo
# [1] = tested on: reniform nematode (Rotylenchulus reniformis); assay: Greenhouse nematicidal experiment, soil infested with reniform nematode; details: for response patterns of nematodes to applications (reniform): compared with 2-propenal
# Text: (§1) The nematicidal properties of 2-propenal (CH2═CH—CHO; acrolein), 2-butenal (CH3—CH═CH—CHO; crotonaldehyde), and trans 2-pentenal (CH3—CH2—CH═CH—CHO) were studied in greenhouse experiments with soil severely infected with the reniform nematode (Rotylenchulus reniformis). The soil was collected from a cotton field and was a sandy loam with pH 6.2, organic matter content <1.0% and cation exchange capacity <10 meq/100 gms soil. The soil was mixed 50:50 by volume, with washed fine siliceous river sand and the mixture, here-from referred to as soil. The moist soil (50% field capacity) was apportioned in 1 Kg quantities contained in 4L polyethylene bags. The compounds were applied to the soil in the bags, and after thorough mixing the treated soil was transferred to 1 L capacity, 4-inch-diam. plastic (PVC) pots which were then covered with a polyethylene bag (1 mil) held tightly to the outside wall of the pot with a rubber band. The covered pots were placed on a greenhouse table and after 10 days the bags were removed and soil samples for nematode analyses were collected from each pot. The pots were planted with “Young” soybean (5 seed/pot.) Soybean plants were grown for 8 weeks when they were removed, soil samples taken for nematode analysis (salad bowl incubation technique), and data were collected on shoot height, and fresh weights of shoots and roots. The relative health of the root systems was determined using a subjective scale. […] Values between 1 and 5 represented intermediate degrees of damage. The roots were incubated to assess nematode populations in them.
# (§2) Emulsifiable concentrates (EC's) were prepared for all three compounds containing 10% (w/w) emulsogen. The EC's were used to make aqueous emulsions containing 2.5% active ingredient; these emulsions were then used to deliver the compounds to soil. Each compound was delivered using the following rates: 0, 25, 50, 75, 100, 125, 150, 175, 200, 225, 250, 275, 300 mgs/kg soil. In every experiment there were 6 replications (pots) per treatment arranged in a randomized complete block design.
# (§3) All data were analyzed according to standard procedures for analysis of variance. Fisher's Least Significant Differences (FLSD) were calculated when F values were significant and are included in the graphs. Curvilineal analyses were conducted according to standard procedures with the TableCurve 2D program.
# microbivorous nematodes = assay: Greenhouse nematicidal experiment, microbivorous nematodes in soil and roots; details: for response patterns of nematodes to applications (microbivorous): compared with 2-propenal
# Text: as §1, §2, §3
# tomato plant = assay: Tomato plant growth study, vigor rating; set-up: key to TOMATO VIGOR 1-5SCALE: 1 = very little vigor, 5 = very vigorous
# Text: This example together with the data in Table 1 includes results of a study conducted to test the affects of acrolein on tomato plant growth. The first column in Table 1 includes, from left to right the treatment number, the treatment name, the rate of application, and the unit for that rate. The treatment name includes two separate treatment ingredients for each treatment number. The top name of each treatment name lists the test additive, and the bottom listing of the treatment name lists any additional herbicide applied in that particular treatment number. For example, in treatment number 5, methyl bromide was applied with a sandea herbicide. The rate and the rate unit headings, for this study, lists the amount of application of the treatment ingredients in pounds of active ingredients per acre (lb ai/a). Column 2 of Table 1 lists a vigor rating for each tomato plant on a scale of 1 to 5, wherein a 1 rating indicates a tomato plant with very little vigor, and a 5 rating indicates a very vigorous tomato plant. Column 2 lists vigor scale ratings for each treatment number taken on Aug. 17, 2005, and column 3 lists a vigor rating for each treatment taken on Aug. 25, 2005.
# [2] = tested on: yellow nutsedge (Cyperus esculentus); assay: Greenhouse herbicidal experiment, post-emergence; details: applied post-emergence
# Protocol: Herbicidal properties of the compounds were studied as described for experiments on nematicidal activities. The soil was from a cotton field with a silt loam soil from a cotton field with similar properties as the one used for the nematode experiments. It was infested with a variety of weeds and was artificially seeded with 5 yellow nutsedge tubercles/pot. Nutsedge plants and other weeds were grown for a month, and the pots were then treated with 2-propenal and covered with polyethylene bags for 10 days, when the bags were removed and weed counts taken at two weeks and one month after treatment. Rates used in these experiments were: 0, 100, 200, 300, 400, 500, 600, 700, and 800 mgs/kg soil.
# as §3
# "Young" soybean = assay: Growth response of soybean plants in treated soil (greenhouse)
# Text: as §1, §2, §3
# [3] = 0-300 mgs/kg soil, pre-plant samples
# [4] = 50 mgs/kg soil equivalent to 100 lbs/A, pre-plant samples
compound,measurement,setting,value
2-butenal,response patterns of nematodes to applications (reniform),[1],very similar to those described for 2-propenal
same,response patterns of nematodes to applications (microbivorous),microbivorous nematodes,very similar to those described for 2-propenal
2-propenal,populations of reniform nematodes in pre-plant samples,[1]; [3],reduced exponentially
same,reduction in populations of reniform nematodes,[1]; [4],> 90%
same,TOMATO VIGOR 1-5SCALE,"tomato plant; 17/Aug/05, DRIP 200 lb ai/a, no herbicide",3.000
same,TOMATO VIGOR 1-5SCALE,"tomato plant; 17/Aug/05, DRIP 200 lb ai/a, with SANDEA 0.25 lb ai/a",3.000
same,TOMATO VIGOR 1-5SCALE,"tomato plant; 17/Aug/05, DRIP 200 lb ai/a, with V-10142 0.25 lb ai/a",3.000
same,TOMATO VIGOR 1-5SCALE,"tomato plant; 17/Aug/05, DRIP 400 lb ai/a, no herbicide",3.000
same,TOMATO VIGOR 1-5SCALE,"tomato plant; 17/Aug/05, DRIP 400 lb ai/a, with SANDEA 0.25 lb ai/a",2.750
same,TOMATO VIGOR 1-5SCALE,"tomato plant; 17/Aug/05, DRIP 400 lb ai/a, with V-10142 0.25 lb ai/a",3.000
same,TOMATO VIGOR 1-5SCALE,"tomato plant; 17/Aug/05, DRIP 600 lb ai/a, no herbicide",1.250
same,TOMATO VIGOR 1-5SCALE,"tomato plant; 17/Aug/05, DRIP 600 lb ai/a, with SANDEA 0.25 lb ai/a",1.500
same,TOMATO VIGOR 1-5SCALE,"tomato plant; 17/Aug/05, DRIP 600 lb ai/a, with V-10142 0.25 lb ai/a",2.250
same,TOMATO VIGOR 1-5SCALE,"tomato plant; 17/Aug/05, INJECT 200 lb ai/a, no herbicide, listed as ACROLEIN",4.250
same,TOMATO VIGOR 1-5SCALE,"tomato plant; 17/Aug/05, INJECT 200 lb ai/a, no herbicide, listed as acrolein",4.25
same,TOMATO VIGOR 1-5SCALE,"tomato plant; 17/Aug/05, INJECT 200 lb ai/a, with SANDEA 0.25 lb ai/a",4.000
same,TOMATO VIGOR 1-5SCALE,"tomato plant; 17/Aug/05, INJECT 200 lb ai/a, with V-10142 0.25 lb ai/a",4.000
same,TOMATO VIGOR 1-5SCALE,"tomato plant; 17/Aug/05, INJECT 400 lb ai/a, no herbicide, listed as ACROLEIN",4.000
same,TOMATO VIGOR 1-5SCALE,"tomato plant; 17/Aug/05, INJECT 400 lb ai/a, no herbicide, listed as acrolein",4.0
same,TOMATO VIGOR 1-5SCALE,"tomato plant; 17/Aug/05, INJECT 400 lb ai/a, with SANDEA 0.25 lb ai/a",3.000
same,TOMATO VIGOR 1-5SCALE,"tomato plant; 17/Aug/05, INJECT 400 lb ai/a, with V-10142 0.25 lb ai/a",4.000
same,TOMATO VIGOR 1-5SCALE,"tomato plant; 17/Aug/05, INJECT 600 lb ai/a, no herbicide",3.250
same,TOMATO VIGOR 1-5SCALE,"tomato plant; 17/Aug/05, INJECT 600 lb ai/a, with SANDEA 0.25 lb ai/a",3.250
same,TOMATO VIGOR 1-5SCALE,"tomato plant; 17/Aug/05, INJECT 600 lb ai/a, with V-10142 0.25 lb ai/a",3.250
same,TOMATO VIGOR 1-5SCALE,"tomato plant; 25/Aug/05, DRIP 200 lb ai/a, no herbicide",4.000
same,TOMATO VIGOR 1-5SCALE,"tomato plant; 25/Aug/05, DRIP 200 lb ai/a, with SANDEA 0.25 lb ai/a",3.750
same,TOMATO VIGOR 1-5SCALE,"tomato plant; 25/Aug/05, DRIP 200 lb ai/a, with V-10142 0.25 lb ai/a",3.850
same,TOMATO VIGOR 1-5SCALE,"tomato plant; 25/Aug/05, DRIP 400 lb ai/a, no herbicide",3.250
same,TOMATO VIGOR 1-5SCALE,"tomato plant; 25/Aug/05, DRIP 400 lb ai/a, with SANDEA 0.25 lb ai/a",3.500
same,TOMATO VIGOR 1-5SCALE,"tomato plant; 25/Aug/05, DRIP 400 lb ai/a, with V-10142 0.25 lb ai/a",3.250
same,TOMATO VIGOR 1-5SCALE,"tomato plant; 25/Aug/05, DRIP 600 lb ai/a, no herbicide",2.500
same,TOMATO VIGOR 1-5SCALE,"tomato plant; 25/Aug/05, DRIP 600 lb ai/a, with SANDEA 0.25 lb ai/a",2.500
same,TOMATO VIGOR 1-5SCALE,"tomato plant; 25/Aug/05, DRIP 600 lb ai/a, with V-10142 0.25 lb ai/a",2.900
same,TOMATO VIGOR 1-5SCALE,"tomato plant; 25/Aug/05, INJECT 200 lb ai/a, no herbicide, listed as ACROLEIN",4.750
same,TOMATO VIGOR 1-5SCALE,"tomato plant; 25/Aug/05, INJECT 200 lb ai/a, no herbicide, listed as acrolein",4.75
same,TOMATO VIGOR 1-5SCALE,"tomato plant; 25/Aug/05, INJECT 200 lb ai/a, with SANDEA 0.25 lb ai/a",4.750
same,TOMATO VIGOR 1-5SCALE,"tomato plant; 25/Aug/05, INJECT 200 lb ai/a, with V-10142 0.25 lb ai/a",4.750
same,TOMATO VIGOR 1-5SCALE,"tomato plant; 25/Aug/05, INJECT 400 lb ai/a, no herbicide, listed as ACROLEIN",5.000
same,TOMATO VIGOR 1-5SCALE,"tomato plant; 25/Aug/05, INJECT 400 lb ai/a, no herbicide, listed as acrolein",5.0
same,TOMATO VIGOR 1-5SCALE,"tomato plant; 25/Aug/05, INJECT 400 lb ai/a, with SANDEA 0.25 lb ai/a",4.250
same,TOMATO VIGOR 1-5SCALE,"tomato plant; 25/Aug/05, INJECT 400 lb ai/a, with V-10142 0.25 lb ai/a",4.650
same,TOMATO VIGOR 1-5SCALE,"tomato plant; 25/Aug/05, INJECT 600 lb ai/a, no herbicide",4.250
same,TOMATO VIGOR 1-5SCALE,"tomato plant; 25/Aug/05, INJECT 600 lb ai/a, with SANDEA 0.25 lb ai/a",4.000
same,TOMATO VIGOR 1-5SCALE,"tomato plant; 25/Aug/05, INJECT 600 lb ai/a, with V-10142 0.25 lb ai/a",3.750
same,doses resulting in practical elimination of the weed,[2],≥ 200 mgs/kgs soil
same,populations of microbivorous nematodes in pre-plant samples,microbivorous nematodes; [3],reduced exponentially
same,microbivorous populations at the end of the experiment,microbivorous nematodes; 75 mg rate,stimulated
same,reduction in populations of microbivorous nematodes,microbivorous nematodes; [4],> 90%
same,microbivorous populations at the end of the experiment,"microbivorous nematodes; applications of ≦100 mgs/kg soil, soil and root samples",recovered
same,shoot height,"""Young"" soybean; dosages above 50 mgs",gradual decline
same,shoot weights,"""Young"" soybean; dosages above 50 mgs",gradual decline
same,root weights,"""Young"" soybean; dosages higher than 175 mgs",declined
same,shoot height,"""Young"" soybean; dosages ≦50 mgs",Sharp increases
same,shoot weights,"""Young"" soybean; dosages ≦50 mgs",Sharp increases
same,root weights,"""Young"" soybean; rates up to 175 mgs",increased gradually
same,root condition,"""Young"" soybean; subjective scale 1 to 5, rates 25-300 mgs/kg soil",improved by all but the highest dose
"CBr [METHYL BROMIDE 1, methyl bromide, reference compound]",TOMATO VIGOR 1-5SCALE,"tomato plant; 17/Aug/05, 350 lb ai/a, no herbicide",2.500
same,TOMATO VIGOR 1-5SCALE,"tomato plant; 17/Aug/05, 350 lb ai/a, no herbicide, listed as METHYL BROMIDE 2",2.250
same,TOMATO VIGOR 1-5SCALE,"tomato plant; 17/Aug/05, 350 lb ai/a, with SANDEA 0.25 lb ai/a",2.250
same,TOMATO VIGOR 1-5SCALE,"tomato plant; 17/Aug/05, 350 lb ai/a, with SANDEA 0.25 lb ai/a, listed as METHYL BROMIDE 2",2.500
same,TOMATO VIGOR 1-5SCALE,"tomato plant; 17/Aug/05, 350 lb ai/a, with V-10142 0.25 lb ai/a",2.000
same,TOMATO VIGOR 1-5SCALE,"tomato plant; 17/Aug/05, 350 lb ai/a, with V-10142 0.25 lb ai/a, listed as METHYL BROMIDE 2",2.500
same,TOMATO VIGOR 1-5SCALE,"tomato plant; 25/Aug/05, 350 lb ai/a, no herbicide",2.500
same,TOMATO VIGOR 1-5SCALE,"tomato plant; 25/Aug/05, 350 lb ai/a, with SANDEA 0.25 lb ai/a",2.750
same,TOMATO VIGOR 1-5SCALE,"tomato plant; 25/Aug/05, 350 lb ai/a, with SANDEA 0.25 lb ai/a, listed as METHYL BROMIDE 2",2.500
same,TOMATO VIGOR 1-5SCALE,"tomato plant; 25/Aug/05, 350 lb ai/a, with V-10142 0.25 lb ai/a",2.650
same,TOMATO VIGOR 1-5SCALE,"tomato plant; 25/Aug/05, 350 lb ai/a, with V-10142 0.25 lb ai/a, listed as METHYL BROMIDE 2",2.500
same,change in vigor scale rating over the term of the test,"tomato plant; 350 lb ai/a, no additional herbicide",no change
"CC/C=C/C=O [2-pentenal, trans-2-pentenal]",response patterns of nematodes to applications (reniform),[1],very similar to those described for 2-propenal
same,response patterns of nematodes to applications (microbivorous),microbivorous nematodes,very similar to those described for 2-propenal
